Assay results as given in publication PMC10454678, “Synthesis of hydroxy benzoin/benzil analogs and investigation of their antioxidant, antimicrobial, enzyme inhibition, and cytotoxic activities” (Turkish Journal of Chemistry, 2021).
Values after ≈ are worked out from the molar mass of the structure shown. Values joined by “and” are separate entries in the source; they are usually repeats but may differ in a detail not shown here. Identical values can stand only once. Like-named read-outs stand apart in the source and are kept apart here.

Key:
[1] = tested on: Escherichia coli ATCC 25922; experiment: MIC, microdilution, E. coli; format: cell-based; conditions: Escherichia coli
[2] = tested on: Mycobacterium smegmatis ATCC607; experiment: MIC, microdilution, M. smegmatis; format: cell-based; conditions: Tub., BHI broth, 36 °C; for MIC: Mycolicibacterium smegmatis, ATCC607, 72 h, read-out: MIC Ms; for MIC Ms: 72 h
[3] = tested on: Paenibacillus larvae DSM7030; experiment: MIC, microdilution, P. larvae; format: cell-based; conditions: Gram (+) nonpathogenic spore forming
acetylcholinesterase = acetylcholinesterase (Homo sapiens, UniProt P22303); experiment: biochemical; conditions: Tris-HCl pH 8.0, 25 °C, 405 nm; read-out: AChE IC50 (converted)
Chain of acetylcholinesterase (P22303 32-614, species assumed): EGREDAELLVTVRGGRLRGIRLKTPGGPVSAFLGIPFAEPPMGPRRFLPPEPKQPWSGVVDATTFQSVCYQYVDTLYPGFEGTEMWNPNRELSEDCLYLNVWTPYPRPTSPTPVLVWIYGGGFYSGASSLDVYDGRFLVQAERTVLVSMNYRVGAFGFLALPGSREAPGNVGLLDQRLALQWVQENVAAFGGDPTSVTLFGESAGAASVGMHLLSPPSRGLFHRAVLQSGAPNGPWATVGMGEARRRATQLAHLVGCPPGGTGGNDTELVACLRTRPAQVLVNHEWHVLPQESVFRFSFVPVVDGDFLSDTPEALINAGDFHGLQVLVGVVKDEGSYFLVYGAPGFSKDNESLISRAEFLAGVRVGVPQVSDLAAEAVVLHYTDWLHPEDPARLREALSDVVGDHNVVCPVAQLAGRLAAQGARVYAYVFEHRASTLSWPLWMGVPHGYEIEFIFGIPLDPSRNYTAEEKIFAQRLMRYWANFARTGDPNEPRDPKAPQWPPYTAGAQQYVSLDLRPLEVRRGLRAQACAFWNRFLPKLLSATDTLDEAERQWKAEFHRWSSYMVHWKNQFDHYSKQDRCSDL

butyrylcholinesterase = butyrylcholinesterase (Homo sapiens, UniProt P06276); experiment: biochemical; conditions: Tris-HCl pH 8.0, 25 °C, 405 nm; read-out: BChE IC50 (converted)
Chain of butyrylcholinesterase (P06276 29-602): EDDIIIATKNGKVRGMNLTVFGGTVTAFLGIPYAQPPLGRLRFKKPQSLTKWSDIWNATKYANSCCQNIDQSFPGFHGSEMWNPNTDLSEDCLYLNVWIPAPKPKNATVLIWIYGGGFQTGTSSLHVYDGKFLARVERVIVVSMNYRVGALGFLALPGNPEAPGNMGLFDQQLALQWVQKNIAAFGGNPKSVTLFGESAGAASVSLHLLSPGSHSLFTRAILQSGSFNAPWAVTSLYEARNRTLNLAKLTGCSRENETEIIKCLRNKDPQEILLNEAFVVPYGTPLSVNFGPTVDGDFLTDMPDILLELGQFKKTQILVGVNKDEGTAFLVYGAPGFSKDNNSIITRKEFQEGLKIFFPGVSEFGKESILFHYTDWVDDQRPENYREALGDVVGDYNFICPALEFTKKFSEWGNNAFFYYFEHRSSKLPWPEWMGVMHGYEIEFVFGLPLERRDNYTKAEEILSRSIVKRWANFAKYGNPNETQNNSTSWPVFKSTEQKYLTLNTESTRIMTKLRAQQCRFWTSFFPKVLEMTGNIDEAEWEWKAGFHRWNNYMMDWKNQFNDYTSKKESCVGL

α-glucosidase = experiment: α-Glucosidase inhibition; format: biochemical; conditions: PNPG, pH 6.8, 37 °C, 400 nm
Method: It was incubated at 37 °C for 15 min. Similarly, an enzyme-free blank was prepared. The reaction was stopped when sodium carbonate (50 μL, 0.2 M) was added.

[4] = tested on: human retinal normal cell line (RPE); experiment: MTT cell proliferation, RPE; conditions: Homo sapiens, 24 h
[5] = tested on: human cervical cancer cell line (HeLa); experiment: MTT cell proliferation, HeLa; conditions: Homo sapiens, HeLa, 24 h
[6] = DPPH radical scavenging activity; conditions: 0.1 mM DPPH, 50 min dark, 517 nm
[7] = Copper ions reducing activity (CUPRAC); conditions: Trolox equivalents; 30 min dark, room temperature, 450 nm
[8] = Ferric reducing antioxidant power (FRAP) assay; conditions: Trolox equivalents; compounds 2 mg/mL, 30 °C 30 min, 595 nm
[9] = tested on: Bacillus subtilis ATCC1266; experiment: MIC, microdilution, B. subtilis; format: cell-based; conditions: Gram (+) nonpathogenic spore forming
[10] = tested on: Yersinia pseudotuberculosis ATCC911; experiment: microbe, parasite or virus in culture; format: cell-based; conditions: Yersinia pseudotuberculosis, ATCC911, read-out: MIC Yp
[11] = tested on: Pseudomonas aeruginosa ATCC27853; experiment: MIC, microdilution, P. aeruginosa; format: cell-based; conditions: Pseudomonas aeruginosa
[12] = tested on: Staphylococcus aureus ATCC25923; experiment: MIC, microdilution, S. aureus; format: cell-based; conditions: Staphylococcus aureus
[13] = tested on: Streptococcus mutans RSKK07038; experiment: MIC, microdilution, S. mutans; format: cell-based; conditions: Streptococcus mutans, read-out: MIC Sm
[14] = tested on: Enterococcus faecalis ATCC29212; experiment: MIC, microdilution, E. faecalis; format: cell-based; conditions: Enterococcus faecalis
Bacillus cereus Roma709 = experiment: MIC, microdilution, B. cereus; format: cell-based; conditions: Bacillus cereus
[15] = tested on: Candida albicans ATCC60193; experiment: MIC, microdilution, C. albicans; format: cell-based; conditions: Candida albicans, read-out: MIC Ca
[16] = ATCC25922, Gram (-), Mueller-Hinton broth, 18-24 h, 36 °C, read-out: MIC Ec
[17] = ATCC27853, Gram (-), Mueller-Hinton broth, 18-24 h, 36 °C, read-out: MIC Pa
[18] = ATCC25923, Gram (+), Mueller-Hinton broth, 18-24 h, 36 °C, read-out: MIC Sa
[19] = RSKK07038, Gram (+), BHI broth, 72 h, 36 °C
[20] = ATCC29212, Gram (+), Mueller-Hinton broth, 18-24 h, 36 °C, read-out: MIC Ef
[21] = ROMA709, Gram (+), Mueller-Hinton broth, 18-24 h, 36 °C, read-out: MIC Bc
[22] = ATCC60193, fungus, YEPD broth, 48 h, 36 °C

## O=C(C(=O)c1cccc(OC2O[C@H](CO)[C@@H](O)[C@H](O)[C@H]2O)c1)c1ccc(O)cc1 (stereo partly drawn) [Compound 25, 1-(3-O-β -D-Glucopyranosylphenyl)-2-(4-hydroxyphenyl)ethane-1,2-dione]
[1]; [16]
  MIC: 8 to 15 µg/mL (≈ 19.8 to 37.1 µM)
[2]
  MIC: 8 to 15 µg/mL (≈ 19.8 to 37.1 µM)
[3]
  MIC: 8 to 15 µg/mL (≈ 19.8 to 37.1 µM)
acetylcholinesterase
  IC50: 562 µM
butyrylcholinesterase
  IC50: 331 µM
α-glucosidase
  α-Glucosidase IC50: >1000 µg/mL
[4]; read-out: GI50 RPE normal cell line
  GI50: 3.38 µg/mL (≈ 8.36 µM)
[4]; read-out: IC50 RPE normal cell line
  IC50: 102 µg/mL (≈ 252 µM)
[5]; read-out: GI50 HeLa cell line
  GI50: 2.21 µg/mL (≈ 5.47 µM)
[5]; read-out: IC50 HeLa cell line
  IC50: 81.5 µg/mL (≈ 202 µM)
[6]
  DPPH radical scavenging capacity (SC50): 26.33 ± 0.39 mg/mL
[7]
  CUPRAC, copper reducing antioxidant power: 147.54 ± 25.04 μg/mL trolox/gram DW
[8]
  FRAP, the iron reducing antioxidant power: 2570.42 ± 25.01 μg/mL trolox/gram DW

## O=C(C(=O)c1cccc(OC2O[C@H](CO)[C@@H](O)[C@H](O)[C@H]2O)c1)c1ccccc1 (stereo partly drawn) [Compound 21, 1-(3-O-β -D-Glucopyranosylphenyl)-2-phenylethane-1,2-dione]
[3]
  MIC: 12 to 27 µg/mL (≈ 30.9 to 69.5 µM)
[9]
  MIC: 12 to 27 µg/mL (≈ 30.9 to 69.5 µM)
acetylcholinesterase
  IC50: > 2570 µM
butyrylcholinesterase
  IC50: > 2570 µM
α-glucosidase
  α-Glucosidase IC50: >1000 µg/mL
[6]
  DPPH radical scavenging capacity (SC50): 36.94 ± 1.71 mg/mL
[7]
  CUPRAC, copper reducing antioxidant power: 109.94 ± 19.42 μg/mL trolox/gram DW
[8]
  FRAP, the iron reducing antioxidant power: 1981.25 ± 28.33 μg/mL trolox/gram DW

## O=C(C(=O)c1cccc(O)c1)c1ccccc1 [Compound 8, 1-(3-Hydroxyphenyl)-2-phenylethane-1,2-dione]
[1]; ATCC25922, read-out: MIC Ec
  MIC: 167 µg/mL (≈ 738 µM)
[10]
  MIC: 167 µg/mL (≈ 738 µM)
[11]; [17]
  MIC: 11 µg/mL (≈ 48.6 µM)
[12]; [18]
  MIC: 11 µg/mL (≈ 48.6 µM)
[13]; [19]
  MIC: 21 µg/mL (≈ 92.8 µM)
[14]; [20]
  MIC: 21 µg/mL (≈ 92.8 µM)
Bacillus cereus Roma709; [21]
  MIC: 11 µg/mL (≈ 48.6 µM)
[2]
  MIC: 9 to 18 µg/mL (≈ 39.8 to 79.6 µM)
  MIC Ms: 11 µg/mL (≈ 48.6 µM)
[15]; [22]
  MIC: 41 µg/mL (≈ 181 µM)
acetylcholinesterase
  IC50: > 4420 µM
butyrylcholinesterase
  IC50: > 4420 µM
α-glucosidase
  α-Glucosidase IC50: >1000 µg/mL
[6]
  DPPH radical scavenging capacity (SC50): 13.56 ± 1.2 mg/mL
[7]
  CUPRAC, copper reducing antioxidant power: 1095.00 ± 18.1 μg/mL trolox/gram DW
[8]
  FRAP, the iron reducing antioxidant power: 1678 ± 64.6 μg/mL trolox/gram DW

## O=C(C(=O)c1cc(O)cc(O)c1)c1cccc(O)c1 [Compound 13, 1-(3,5-Dihydroxyphenyl)-2-(3-hydroxyphenyl)ethane-1,2-dione]
[1]; ATCC25922, read-out: MIC Ec
  MIC: 167 µg/mL (≈ 647 µM)
[10]
  MIC: 167 µg/mL (≈ 647 µM)
[11]; ATCC27853, read-out: MIC Pa
  MIC: 11 µg/mL (≈ 42.6 µM)
[12]; [18]
  MIC: 11 µg/mL (≈ 42.6 µM)
[13]; RSKK07038, 72 h
  MIC: 21 µg/mL (≈ 81.3 µM)
[14]; ATCC29212, read-out: MIC Ef
  MIC: 21 µg/mL (≈ 81.3 µM)
Bacillus cereus Roma709; [21]
  MIC: 11 µg/mL (≈ 42.6 µM)
[2]
  MIC: 9 to 18 µg/mL (≈ 34.9 to 69.7 µM)
  MIC Ms: 11 µg/mL (≈ 42.6 µM)
[15]; ATCC60193, 48 h
  MIC: 41 µg/mL (≈ 159 µM)
acetylcholinesterase
  IC50: > 3870 µM
butyrylcholinesterase
  IC50: > 3870 µM
α-glucosidase
  α-Glucosidase IC50: >1000 µg/mL
[6]
  DPPH radical scavenging capacity (SC50): 9.42 ± 0.8 mg/mL
[8]
  FRAP, the iron reducing antioxidant power: 1844 ± 56.2 μg/mL trolox/gram DW

## O=C(c1cc(O)cc(O)c1)C(O)c1ccccc1 (stereo not drawn) [Compound 3, 2-Hydroxy-1-(3,5-dihydroxyphenyl)-2-phenylethanone]
[1]; [16]
  MIC: 820 µg/mL (≈ 3360 µM)
[10]
  MIC: 1660 µg/mL (≈ 6780 µM)
[11]; [17]
  MIC: 207 µg/mL (≈ 848 µM)
[12]; ATCC25923, read-out: MIC Sa
  MIC: 207 µg/mL (≈ 848 µM)
[13]; [19]
  MIC: 414 µg/mL (≈ 1700 µM)
[14]; [20]
  MIC: 820 µg/mL (≈ 3360 µM)
Bacillus cereus Roma709; ROMA709, read-out: MIC Bc
  MIC: 207 µg/mL (≈ 848 µM)
[2]
  MIC: 103 µg/mL (≈ 422 µM)
[15]; [22]
  MIC: 414 µg/mL (≈ 1700 µM)
acetylcholinesterase
  IC50: 1630 µM
butyrylcholinesterase
  IC50: 592 µM
α-glucosidase
  α-Glucosidase IC50: 812.10 µg/mL
[6]
  DPPH radical scavenging capacity (SC50): 8.72 ± 0.26 mg/mL
[7]
  CUPRAC, copper reducing antioxidant power: 90.00 ± 6.8 μg/mL trolox/gram DW
[8]
  FRAP, the iron reducing antioxidant power: 1111 ± 47.9 μg/mL trolox/gram DW

## O=C(c1ccc(O)cc1)C(O)c1cccc(O)c1 (stereo not drawn) [Compound 5, 2-Hydroxy-2-(3-hydroxyphenyl)-1-(4-hydroxyphenyl)ethanone]
[1]; [16]
  MIC: 387 µg/mL (≈ 1580 µM)
[10]
  MIC: 775 µg/mL (≈ 3170 µM)
[11]; [17]
  MIC: 96 µg/mL (≈ 393 µM)
[12]; [18]
  MIC: 96 µg/mL (≈ 393 µM)
[13]; [19]
  MIC: 48 µg/mL (≈ 197 µM)
[14]; [20]
  MIC: 1550 µg/mL (≈ 6350 µM)
Bacillus cereus Roma709; [21]
  MIC: 48 µg/mL (≈ 197 µM)
[2]
  MIC: 48 µg/mL (≈ 197 µM)
acetylcholinesterase
  IC50: 3230 µM
butyrylcholinesterase
  IC50: > 4090 µM
α-glucosidase
  α-Glucosidase IC50: >1000 µg/mL
[6]
  DPPH radical scavenging capacity (SC50): 8.12 ± 1.2 mg/mL
[7]
  CUPRAC, copper reducing antioxidant power: 1113.33±64 μg/mL trolox/gram DW and 1113.33 ± 64.9 μg/mL trolox/gram DW
[8]
  FRAP, the iron reducing antioxidant power: 2090 ± 101.4 μg/mL trolox/gram DW
